# According to US20240285500A1, “HAIR GROWTH AGENT” (ADJUVANT HOLDINGS CO., LTD., priority 2021, published 2024):
# Key:
# [1] = system: VEGF gene expression in human dermal papilla cells; assay: Evaluation of human dermal papilla cell VEGF gene expression (real-time PCR); format: cell-based; conditions: 72 hours
# Protocol: Exemplary Test 1: Evaluation of Human Dermal Papilla Cell VEGF Gene Expression
# The VEGF gene is expressed in dermal papilla cells, and contributes to expression of such effects as increase in hair shaft diameter and improving maximum hair shaft length and improving hair shaft elongation rate and hair shaft growth promotion at head hair, beard, eyebrows, and/or eyelashes. Human dermal papilla cells were therefore used, and evaluation was carried out with respect to increase in VEGF gene expression for the respective components.
# Human dermal papilla cells (Catalog No. CA60205a; derived from person; Toyobo Co., Ltd. (Japan)) were purchased, testing and evaluation being carried out with maintenance and culture of cells being performed as described in the protocol. […]
# A 24-well plate was seeded with human dermal papilla cells so as to obtain 6×10^3 thereof per well. […] The GAPDH gene was used as an internal standard, the amount of VEGF gene expression being calculated relative to the negative control group. […]
# [2] = system: vascular endothelial growth factor (VEGF) expression in human dermal papilla cells; conditions: cited from earlier work
structure (smiles),measurement,setting,value
"CCCCCCCCCCCCCC[C@@H](O)[C@@H](O)[C@@H](N)CO [Working Example 1, phytosphingosine]",change in amount of expression of the VEGF gene as compared with the control group,"[1]; vs control group at which nothing had been added, GAPDH internal standard, FIG. 1",increase in dosage-dependent fashion in the amount of expression of the VEGF gene
Nc1ncnc2c1ncn2[C@@H]1O[C@H](CO)[C@@H](O)[C@H]1O [adenosine],expression of vascular endothelial growth factor (VEGF),[2],promotes expression of vascular endothelial growth factor (VEGF)
CCCCCCCCCCCCCC[C@@H](O)[C@@H](O)[C@@H](N)CO [phytosphingosine],amount of expression of the VEGF gene compared with Comparative Example 1,"[1]; increased amount of phytosphingosine vs Comparative Example 1, FIG. 1",significantly greater
